Test results published in patent publication US20100216761A1, “NOVEL AZETIDINONES USEFUL AS INHIBITORS OF ELASTASE” (priority 2007, published 2010).
Values joined by “and” are separate entries in the source; they are usually repeats but may differ in a detail not shown here. Equal values may be shown once. Read-outs that look alike come from different tables or passages of the source.

What was measured:
CYP-P450 2D6 = target: T1, CYP-P450 2D6 (Homo sapiens, UniProt P10635); experiment: CYP-P450 reversible inhibition, 2D6; type: in vitro ADME; details: human liver microsomes or recombinant P450 microsomes; fluorescent probe
T1 construct: host or cells: human liver microsomes or recombinant P450 microsomes
T1 sequence (P10635 whole entry): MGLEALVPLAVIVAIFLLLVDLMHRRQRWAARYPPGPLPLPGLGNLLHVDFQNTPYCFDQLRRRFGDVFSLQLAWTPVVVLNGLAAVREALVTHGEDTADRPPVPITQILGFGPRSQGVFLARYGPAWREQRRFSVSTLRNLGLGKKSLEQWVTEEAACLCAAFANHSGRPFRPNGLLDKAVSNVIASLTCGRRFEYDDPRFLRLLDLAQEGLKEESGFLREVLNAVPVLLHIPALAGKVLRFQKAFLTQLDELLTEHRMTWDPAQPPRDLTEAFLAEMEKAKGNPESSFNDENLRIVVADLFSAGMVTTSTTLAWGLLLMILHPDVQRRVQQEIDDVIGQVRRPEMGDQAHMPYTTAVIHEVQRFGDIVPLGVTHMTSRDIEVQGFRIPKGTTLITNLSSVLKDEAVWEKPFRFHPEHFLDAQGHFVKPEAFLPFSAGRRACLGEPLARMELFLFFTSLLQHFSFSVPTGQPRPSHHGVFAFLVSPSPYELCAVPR
Experimental: (§1) This assay measured the reversible inhibition of the test compounds against three cytochrome P450 isozymes (CYP-P450 3A4, 2C9 and 2D6) in an automated screening formate. […] Cumene hydroperoxide, NADPH or NADPH regenerating systems can be used as electron donors for the P450 catalytic cycle. Control incubations containing no inhibitor or no fluorescent probe were performed to evaluate the 100% and 0% activities, respectively. The activity of P450 enzyme was evaluated in the presence of 0.137, 0.273, 0.547, 1.094, 2.188, 4.375, 8.750, 17.5, 35.0 and 70.0 μM concentrations of the test compounds. Inhibition curves were generated and IC50 values were calculated for each tested compound using standard techniques.

CYP-P450 3A4 = target: T2, CYP-P450 3A4 (Homo sapiens, UniProt P08684); experiment: CYP-P450 reversible inhibition, 3A4; type: in vitro ADME; details: human liver microsomes or recombinant P450 microsomes; fluorescent probe
T2 construct: host or cells: human liver microsomes or recombinant P450 microsomes
T2 sequence (P08684 whole entry): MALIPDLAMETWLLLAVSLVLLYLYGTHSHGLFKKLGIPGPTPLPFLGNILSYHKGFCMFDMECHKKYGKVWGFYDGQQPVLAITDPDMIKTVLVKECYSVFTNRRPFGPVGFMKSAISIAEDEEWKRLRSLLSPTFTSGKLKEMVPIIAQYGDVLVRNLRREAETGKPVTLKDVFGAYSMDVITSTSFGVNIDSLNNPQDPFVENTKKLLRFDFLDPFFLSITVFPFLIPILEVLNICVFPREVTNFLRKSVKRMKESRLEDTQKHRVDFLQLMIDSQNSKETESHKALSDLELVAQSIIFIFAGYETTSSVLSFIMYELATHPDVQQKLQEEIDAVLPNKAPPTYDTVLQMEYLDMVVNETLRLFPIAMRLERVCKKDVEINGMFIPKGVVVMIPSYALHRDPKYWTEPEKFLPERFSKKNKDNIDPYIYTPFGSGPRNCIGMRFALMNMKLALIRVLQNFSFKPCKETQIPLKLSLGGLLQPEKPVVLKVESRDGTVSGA
Experimental: as §1

[1] = Human liver microsome stability (Assays #1-#4); type: in vitro ADME; details: substrate 1 μM, 37° C.; for % Left @ 30 min / half-life at 1 μM: Assay #1; for % Left @ 30 min / % Left Assay 3 @ 0 min / % Left Assay 3 @ 5 min / % Left Assay 3 @ 10 min / % Left Assay 3 @ 15 min / % Left Assay 3 @ 30 min / % Left Assay 3 @ 60 min / half-life at 1 μM: protein 0.1 mg/mL; for half-life at 1 μM: human, liver microsomes; for % Left (+NADPH) @ 0 min / % Left (+NADPH) @ 5 min / % Left (+NADPH) @ 10 min / % Left (+NADPH) @ 15 min / % Left (+NADPH) @ 30 min / % Left (+NADPH) @ 60 min / % Left (−NADPH) @ 0 min / % Left (−NADPH) @ 60 min: Assay #4, protein 1.0 mg/mL; for % Left (−NADPH) @ 0 min / % Left (−NADPH) @ 60 min: −NADPH control
Experimental: The results for Examples 1 and 3 were t112=87 and 32 minutes with 78% and 60% remaining after 30 minutes, respectively, compared to shorter half-lives and lesser amounts left for Examples 2 and 4-6 (see Note 6 for conditions).
Under similar in vitro human liver microsome preparation stability assay conditions at 37° C. for 30 or 60 minutes in a separate head-to-head experiments (Assay #2 and #3) (see Note 6 for conditions) with Examples 1 and 3 and the comparator Compound #290 from U.S. Pat. No. 5,591,737, the amounts left after the 30 minute incubation (with […] microsome protein vs 0.1 mg/mL for Assay #3) were 67, 99 and 79% and for the 60 minute incubation were 94, 73 and 77%, respectively. Similarly, in a third repeat assay (Assay #4 with—NADPH controls) (see Note 6 for conditions), 90 and 72% were remaining for Example 1 and the comparator compound, respectively. […]
Note 6: Human Liver Microsome Assay # 1-3 conditions. • Assay experiment #1: Substrate concentration=1 μM; Protein concentration=0.1 mg/mL; incubation time=30 minutes at 37° C. • Assay experiment #2: Substrate concentration=1 μM; Protein concentration 0.1 mg/mL; incubation time=30 minutes at 37° C. • Assay experiment #3: Substrate concentration=1 μM; Protein concentration=0.1 mg/mL; incubation time=60 minutes at 37° C. • Assay experiment #4: Substrate concentration=1 μM; Protein concentration=1.0 mg/mL; incubation time=60 minutes at 37° C.

human CYP-3A4 enzyme = experiment: P450 CYP-3A4 induction; type: in vitro ADME; details: test compound 10 μM vs Rifampicin 10 μM (defined as 100%)
Experimental: This assay measured the in vitro induction of the human CYP-3A4 enzyme in the presence of 0.37, 1.11, 3.33, 10 and 30 μM test compound in an automated formate. The results are expressed as the relative percent induction measured for test compound at the 10 μM concentration compared to the known inducer standard Rifampicin at 10 μM (defined as 100%). (See Durocher, et. al., Anal. Biochem. 2000, 284, 316 for details of the assay).

CYP3A4 = CYP3A4 (Homo sapiens, UniProt P08684)
Chain of CYP3A4 (P08684 whole entry): as above
Experimental: This assay measured the pre-incubation time-dependent inhibition of potential CYP-3A4 inhibitors in human liver microsomes using the CYP-3A4 mediated testosterone 6-beta-hydroxylation formate in the presence of test compounds in a semi-automated screening using LC-MS/MS detection. Test compounds are pre-incubated at 37° C. with human liver microsomes (2.5 mg/mL protein) and a NADPH regenerating system for 10, 20, 30 and 40 minutes prior to a ten-fold dilution with a 250 μM solution of testosterone. The diluted reaction is then incubated for 15 minutes at 37° C. The concentration of 6-β-hydroxytestosterone metabolite formed is measured by LC-MS/MS using validated analytical methods. The percent activity remaining is calculated by comparing the amount of marker metabolite formed in the presence of inhibitor compared to no inhibitor control samples at corresponding time points. No inhibitor control samples represent the maximum amount of 6-β-hydroxytestosterone formed under these assay conditions.

Rat pharmacokinetics = type: in vivo, Sprague-Dawley rats; details: for clearance / Vd / half-life / AUCN, i.v. dosing @ 1 mpk: iv, 1 mg/kg; for AUCN, p.o. dosing @ 2 mpk: po, 2 mg/kg
Experimental: As exemplified in Table 7, the in vivo pharmacokinetic profiles for Examples 1 and 3 and the comparator Compound #290 were determined in the rat at the standard screening doses of 1 mpk i.v. and 2 mpk p.o. (Note 10).
Compounds were formulated as their mono-L-malic acid salts at 1 mg/mL in PEG-200:water 70:30 (v:v) and administered to Sprague-Dawley rats (n=2 for i.v. and n=3 for p.o. arms) at a dose of 1 mg/kg i.v. or 2 mgk p.o. (free base equivalent). Blood samples were taken at 0.03, 0.08, 0.25, 0.50, 1, 2, 4, 6, 8 and 24 hours for the i.v. arm and at 0.25, 0.50, 1, 2, 4, 6, 8 and 24 hours for the p.o. arm. The plasma concentrations of test compound at each time point were determined by protein precipitation with acetonitrile followed by liquid chromatography—tandem mass spectrometry versus a standard curve. The PK parameters were calculated using validated techniques known in the literature (see Stedman's Medical Dictionary, 23rd ed.).

SMILES	IC50 (CYP-P450 2D6) [µM]	IC50 (CYP-P450 3A4) [µM]	% Left Assay 2 @ 0 min [1] [%]	% Left Assay 2 @ 2.5 min [1] [%]	% Left Assay 2 @ 5 min [1] [%]	% Left Assay 2 @ 10 min [1] [%]	% Left Assay 2 @ 15 min [1] [%]	% Left Assay 2 @ 30 min [1]	% Left Assay 3 @ 0 min [1] [%]	% Left Assay 3 @ 5 min [1] [%]	% Left Assay 3 @ 10 min [1] [%]	% Left Assay 3 @ 15 min [1] [%]	% Left Assay 3 @ 30 min [1] [%]	% Left Assay 3 @ 60 min [1]	CYP-3A4 Induction % of Rifampicin response @ 10 μM (human CYP-3A4 enzyme) [%]	P450 CYP-3A4 Time-Dependent Inhibition rate @ 10 μM (#1) (CYP3A4) [min⁻¹]	F (Rat pharmacokinetics; Sprague-Dawley, in vivo) [%]	clearance (Rat pharmacokinetics; Sprague-Dawley, in vivo) [mL/min/kg]	AUCN, i.v. dosing @ 1 mpk (Rat pharmacokinetics; in vivo) [μMhrkg/mg]	AUCN, p.o. dosing @ 2 mpk (Rat pharmacokinetics; in vivo) [μMhrkg/mg]	also measured
CCC[C@@H](NC(=O)N1C(=O)C(CC)(CC)[C@@H]1Oc1ccc(C(=O)N(CC)CCN(C)C)cc1)c1ccc(C(F)(F)F)cc1 [Example 3, 2-(S)-[4-(((2-(Dimethylamino)ethyl)ethylamino)carbonyl)phenoxy]-3,3-diethyl-N-[1-(R)-(4-(trifluoromethyl)phenyl)butyl]-4-oxo-1-azetidinecarboxamide]	41	39	100	107	85	82	82	99% and 79 +/− 7%	100	86	81	75	75	73% and 73 +/− 0%	0	0.014	28	113	0.24	0.069	% Left @ 30 min [1]: 60%; half-life at 1 μM [1]: 0.533 h; Vd (Rat pharmacokinetics; Sprague-Dawley, in vivo, i.v. 1 mpk, mono-L-malic acid salts, read-out: VDss): 29 L/kg; half-life (Rat pharmacokinetics; Sprague-Dawley, in vivo, i.v. 1 mpk, mono-L-malic acid salts, read-out: t1/2 (converted)): 3.7 h; F (Rat pharmacokinetics; oral bioavailability, p.o. 2 mpk vs i.v. 1 mpk): 28%
CCC[C@@H](NC(=O)N1C(=O)C(CC)(CC)[C@@H]1Oc1ccc(C(=O)N(C)CCN(C)C)cc1)c1ccc(OC)cc1 [Compound #290, reference compound]	39	62	100	99	95	89	82	79% and 79 +/− 6%	100	90	88	85	83	77% and 77 +/− 4%	6	0.017	29	114	0.28	0.081	% Left (+NADPH) @ 0 min [1]: 100%; % Left (+NADPH) @ 5 min [1]: 92%; % Left (+NADPH) @ 10 min [1]: 89%; % Left (+NADPH) @ 15 min [1]: 84%; % Left (+NADPH) @ 30 min [1]: 78%; % Left (+NADPH) @ 60 min [1]: 72% and 72 +/− 0%; % Left (−NADPH) @ 0 min [1]: 89 +/− 5%; % Left (−NADPH) @ 60 min [1]: 83 +/− 1%; P450 CYP-3A4 Time-Dependent Inhibition rate @ 10 μM (#2) (CYP3A4): 0.008 min⁻¹; P450 CYP-3A4 Time-Dependent Inhibition rate @ 50 μM (CYP3A4): 0.018 min⁻¹; Vd (Rat pharmacokinetics; Sprague-Dawley, in vivo): 14.5 L/kg; half-life (Rat pharmacokinetics; Sprague-Dawley, in vivo): 2 h
CCC[C@@H](NC(=O)N1C(=O)C(CC)(CC)[C@@H]1Oc1ccc(C(=O)N(CC)CCN(C)C)cc1)c1ccc(OC(F)(F)F)cc1 [Example 1, 2-(S)-[4-(((2-(Dimethylamino)ethyl)ethylamino)carbonyl)phenoxy]-3,3-diethyl-N-[1-(R)-(4-(trifluoromethoxy)phenyl)butyl]-4-oxo-1-azetidinecarboxamide]	37	46	100	78	78	73	70	67% and 67 +/− 2%	100	101	79	90	100	94% and 94 +/− 10%	5	0.005	25	42	0.65	0.16	% Left @ 30 min [1]: 78%; % Left (+NADPH) @ 0 min [1]: 100%; % Left (+NADPH) @ 5 min [1]: 104%; % Left (+NADPH) @ 10 min [1]: 99%; % Left (+NADPH) @ 15 min [1]: 96%; % Left (+NADPH) @ 30 min [1]: 91%; % Left (+NADPH) @ 60 min [1]: 90% and 90 +/− 4%; % Left (−NADPH) @ 0 min [1]: 87 +/− 21%; % Left (−NADPH) @ 60 min [1]: 99 +/− 2%; half-life at 1 μM [1]: 1.45 h; P450 CYP-3A4 Time-Dependent Inhibition rate @ 10 μM (#2) (CYP3A4): 0.008 min⁻¹; P450 CYP-3A4 Time-Dependent Inhibition rate @ 50 μM (CYP3A4): 0.018 min⁻¹; Vd (Rat pharmacokinetics; Sprague-Dawley, in vivo): 11 L/kg; half-life (Rat pharmacokinetics; Sprague-Dawley, in vivo): 3.1 h
